Measured values from patent publication US10294234B2, “HIV inhibitor compounds” (priority 2017, dated 2019).

The compounds below were run on HIV-1 (IIIB) in MT-4 cells (assay: MT-4 HIV assay). Conditions: Human immunodeficiency virus 1, MT4, 120 h.
Format: cell-based
Description: Compounds were tested in a high-throughput 384-well assay format for their ability to inhibit the replication of HIV-1 (IIIB) in MT-4 cells. Compounds were serially diluted (1:3) in DMSO on 384-well polypropylene plates and further diluted 200-fold into complete RPMI media (10% FBS, 1% P/S) using the Biotek Micro Flow and Agilent ECHO acoustic dispenser. Each plate contained up to 8 test compounds, with negative (No Drug Control) and 5 uM AZT positive controls. MT-4 cells were pre-infected with 10 uL of either RPMI (mock-infected) or a fresh 1:250 dilution of an HIV-1 (IIIB) concentrated virus stock. Infected and uninfected MT-4 cells were further diluted in complete RPMI media and added to each plate using a Micro Flow dispenser. After 5 days incubation in a humidified and temperature controlled incubator (37° C.), Cell Titer Glo (Promega) was added to the assay plates to quantify the amount of luciferase.

In order of falling EC50:
1. COC(=O)N[C@H](C(=O)N[C@@H](Cc1ccc(C#Cc2ccc(N3CC4CCC(C3)N4C(=O)N(C)C)nc2)cc1)[C@@H](O)CN(Cc1c(F)cc(-c2cnn(C(F)F)c2)cc1F)NC(=O)[C@@H](NC(=O)OC)C(C)(C)C(F)(F)F)C(C)(C)C(F)(F)F [Example 17, Methyl ((5S,8S,9S,14S)-11-(4-(1-(difluoromethyl)-1H-pyrazol-4-yl)-2,6-difluorobenzyl)-8-(4-((6-(8-(dimethylcarbamoyl)-3,8-diazabicyclo[3.2.1]octan-3-yl)pyridin-3-yl)ethynyl)benzyl)-16,16,16-trifluoro-9-hydroxy-15,15-dimethyl-3,6,13-trioxo-5-(1,1,1-trifluoro-2-methylpropan-2-yl)-2-oxa-4,7,11,12-tetraazahexadecan-14-yl)carbamate]  7.24 nM
2. COC(=O)N[C@H](C(=O)N[C@@H](Cc1ccc(C#Cc2cnc(N3C[C@H]4C[C@@H]3CN4C3COC3)nc2)cc1)[C@@H](O)CN(Cc1c(F)cc(-c2ncccn2)cc1F)NC(=O)[C@@H](NC(=O)OC)C(C)(C)C(F)(F)F)C(C)(C)C(F)(F)F [Example 24, Methyl ((5S,8S,9S,14S)-11-(2,6-difluoro-4-(pyrimidin-2-yl)benzyl)-16,16,16-trifluoro-9-hydroxy-15,15-dimethyl-8-(4-((2-((1R,4R)-5-(oxetan-3-yl)-2,5-diazabicyclo[2.2.1]heptan-2-yl)pyrimidin-5-yl)ethynyl)benzyl)-3,6,13-trioxo-5-(1,1,1-trifluoro-2-methylpropan-2-yl)-2-oxa-4,7,11,12-tetraazahexadecan-14-yl)carbamate]  3.82 nM
3. COC(=O)N[C@H](C(=O)N[C@@H](Cc1ccc(C#Cc2ccc(N3C[C@H]4C[C@@H]3CN4C3COC3)nc2)cc1)[C@@H](O)CN(Cc1c(F)cc(-c2nnc(C3CC3)s2)cc1F)NC(=O)[C@@H](NC(=O)OC)C(C)(C)C(F)(F)F)C(C)(C)C(F)(F)F [Example 27, Methyl ((5S,8S,9S,14S)-11-(4-(5-cyclopropyl-1,3,4-thiadiazol-2-yl)-2,6-difluorobenzyl)-16,16,16-trifluoro-9-hydroxy-15,15-dimethyl-8-(4-((6-((1R,4R)-5-(oxetan-3-yl)-2,5-diazabicyclo[2.2.1]heptan-2-yl)pyridin-3-yl)ethynyl)benzyl)-3,6,13-trioxo-5-(1,1,1-trifluoro-2-methylpropan-2-yl)-2-oxa-4,7,11,12-tetraazahexadecan-14-yl)carbamate]  3.5 nM

Same assay, conditions: Human immunodeficiency virus 1, MT4, 120 h; HIV-1 (IIIB), MT-4 cells, 5 days, Cell Titer Glo; read-out: EC50

In order of falling EC50:
1. COC(=O)N[C@H](C(=O)N[C@@H](Cc1ccc(C#Cc2ccc(N3CC4CCC(C3)N4C3COC3)nc2)cc1)[C@@H](O)CN(Cc1ccc(-c2ccn(CC(F)F)n2)cc1)NC(=O)[C@@H](NC(=O)OC)C(C)(C)C(F)(F)F)C(C)(C)C(F)(F)F [Example 3, Methyl ((5S,10S,11S,14S)-8-(4-(1-(2,2-difluoroethyl)-1H-pyrazol-3-yl)benzyl)-16,16,16-trifluoro-10-hydroxy-15,15-dimethyl-11-(4-((6-(8-(oxetan-3-yl)-3,8-diazabicyclo[3.2.1]octan-3-yl)pyridin-3-yl)ethynyl)benzyl)-3,6,13-trioxo-5-(1,1,1-trifluoro-2-methylpropan-2-yl)-2-oxa-4,7,8,12-tetraazahexadecan-14-yl)carbamate]  6.95 nM
2. COC(=O)N[C@H](C(=O)NN(Cc1c(F)cc(-c2ccn(C(F)F)n2)cc1F)C[C@H](O)[C@H](Cc1ccc(C#Cc2ccc(N3CCN4CCOC[C@H]4C3)nc2)cc1)NC(=O)[C@@H](NC(=O)OC)C(C)(C)C(F)(F)F)C(C)(C)C [Example 13, Methyl ((5S,8S,9S,14S)-11-(4-(1-(difluoromethyl)-1H-pyrazol-3-yl)-2,6-difluorobenzyl)-8-(4-((6-((R)-hexahydropyrazino[2,1-c][1,4]oxazin-8(1H)-yl)pyridin-3-yl)ethynyl)benzyl)-9-hydroxy-15,15-dimethyl-3,6,13-trioxo-5-(1,1,1-trifluoro-2-methylpropan-2-yl)-2-oxa-4,7,11,12-tetraazahexadecan-14-yl)carbamate]  6.3 nM
3. COC(=O)N[C@H](C(=O)NN(Cc1c(F)cc(-c2ccn(C3CC3)n2)cc1F)C[C@H](O)[C@H](Cc1ccc(C#Cc2ccc(N3CC4CCC(C3)N4C3COC3)nc2)cc1)NC(=O)[C@@H](NC(=O)OC)C(C)(C)C(F)(F)F)C(C)(C)C [Example 5, methyl ((5S,8S,9S,14S)-11-(4-(1-cyclopropyl-1H-pyrazol-3-yl)-2,6-difluorobenzyl)-9-hydroxy-15,15-dimethyl-8-(4-((6-(8-(oxetan-3-yl)-3,8-diazabicyclo[3.2.1]octan-3-yl)pyridin-3-yl)ethynyl)benzyl)-3,6,13-trioxo-5-(1,1,1-trifluoro-2-methylpropan-2-yl)-2-oxa-4,7,11,12-tetraazahexadecan-14-yl)carbamate]  4.37 nM
4. COC(=O)N[C@H](C(=O)N[C@@H](Cc1ccc(C#Cc2ccc(N3CC4CCC(C3)N4C3COC3)nc2)cc1)[C@@H](O)CN(Cc1c(F)cc(-c2ccn([C@@H]3CCOC3)n2)cc1F)NC(=O)[C@@H](NC(=O)OC)C(C)(C)C(F)(F)F)C(C)(C)C(F)(F)F [Example 15, Methyl ((5S,8S,9S,14S)-11-(2,6-difluoro-4-(1-((R)-tetrahydrofuran-3-yl)-1H-pyrazol-3-yl)benzyl)-16,16,16-trifluoro-9-hydroxy-15,15-dimethyl-8-(4-((6-(8-(oxetan-3-yl)-3,8-diazabicyclo[3.2.1]octan-3-yl)pyridin-3-yl)ethynyl)benzyl)-3,6,13-trioxo-5-(1,1,1-trifluoro-2-methylpropan-2-yl)-2-oxa-4,7,11,12-tetraazahexadecan-14-yl)carbamate]  4.22 nM
5. COC(=O)N[C@H](C(=O)N[C@@H](Cc1ccc(C#Cc2ccc(N3CCN4CCOC[C@H]4C3)nc2)cc1)[C@@H](O)CN(Cc1c(F)cc(-c2ccn(CC(F)F)n2)cc1F)NC(=O)[C@@H](NC(=O)OC)C(C)(C)C(F)(F)F)C(C)(C)C(F)(F)F [Example 10, Methyl ((5S,8S,9S,14S)-11-(4-(1-(2,2-difluoroethyl)-1H-pyrazol-3-yl)-2,6-difluorobenzyl)-16,16,16-trifluoro-8-(4-((6-((R)-hexahydropyrazino[2,1-c][1,4]oxazin-8(1H)-yl)pyridin-3-yl)ethynyl)benzyl)-9-hydroxy-15,15-dimethyl-3,6,13-trioxo-5-(1,1,1-trifluoro-2-methylpropan-2-yl)-2-oxa-4,7,11,12-tetraazahexadecan-14-yl)carbamate]  3.46 nM
6. COC(=O)N[C@H](C(=O)N[C@@H](Cc1ccc(C#Cc2ccc(N3CC4CCC(C3)N4C3COC3)nc2)cc1)[C@@H](O)CN(Cc1c(F)cc(-c2ccn(C)n2)cc1F)NC(=O)[C@@H](NC(=O)OC)C(C)(C)C)C(C)(C)C [Example 22, Methyl ((5S,8S,9S,14S)-5-(tert-butyl)-1-(2,6-difluoro-4-(1-methyl-1H-pyrazol-3-yl)benzyl)-9-hydroxy-15,15-dimethyl-8-(4-((6-(8-(oxetan-3-yl)-3,8-diazabicyclo[3.2.1]octan-3-yl)pyridin-3-yl)ethynyl)benzyl)-3,6,13-trioxo-2-oxa-4,7,11,12-tetraazahexadecan-14-yl)carbamate]  3.24 nM
7. COC(=O)N[C@H](C(=O)NN(Cc1c(F)cc(-c2ccn(C(F)F)n2)cc1F)C[C@H](O)[C@H](Cc1ccc(C#Cc2ccc(N3CC4CC(C3)N4C3COC3)nc2)cc1)NC(=O)[C@@H](NC(=O)OC)C(C)(C)C(F)(F)F)C(C)(C)C [Example 12, Methyl ((5S,8S,9S,14S)-11-(4-(1-(difluoromethyl)-1H-pyrazol-3-yl)-2,6-difluorobenzyl)-9-hydroxy-15,15-dimethyl-8-(4-((6-(6-(oxetan-3-yl)-3,6-diazabicyclo[3.1.1]heptan-3-yl)pyridin-3-yl)ethynyl)benzyl)-3,6,13-trioxo-5-(1,1,1-trifluoro-2-methylpropan-2-yl)-2-oxa-4,7,11,12-tetraazahexadecan-14-yl)carbamate]  3.11 nM
8. COC(=O)N[C@H](C(=O)N[C@@H](Cc1ccc(C#Cc2ccc(N3CC4CCC(C3)N4C(=O)C3(C)COC3)nc2)cc1)[C@@H](O)CN(Cc1c(F)cc(-c2ccn(C)n2)cc1F)NC(=O)[C@@H](NC(=O)OC)C(C)(C)C)C(C)(C)C [Example 4]  2.82 nM
9. COC(=O)N[C@H](C(=O)NN(Cc1c(F)cc(-c2cn(C(F)F)cn2)cc1F)C[C@H](O)[C@H](Cc1ccc(C#Cc2cnc(N3CC4CCC(C3)N4C3COC3)nc2)cc1)NC(=O)[C@@H](NC(=O)OC)C(C)(C)C(F)(F)F)C(C)(C)C [Example 2, Methyl ((5S,8S,9S,14S)-11-(4-(1-(difluoromethyl)-1H-imidazol-4-yl)-2,6-difluorobenzyl)-9-hydroxy-15,15-dimethyl-8-(4-((2-(8-(oxetan-3-yl)-3,8-diazabicyclo[3.2.1]octan-3-yl)pyrimidin-5-yl)ethynyl)benzyl)-3,6,13-trioxo-5-(1,1,1-trifluoro-2-methylpropan-2-yl)-2-oxa-4,7,11,12-tetraazahexadecan-14-yl)carbamate]  2.64 nM
10. COC(=O)N[C@H](C(=O)NN(Cc1c(F)cc(-c2ccn(CC(F)F)n2)cc1F)C[C@H](O)[C@H](Cc1ccc(C#Cc2ccc(N3C[C@H]4C[C@@H]3CN4C3COC3)nc2)cc1)NC(=O)[C@@H](NC(=O)OC)C(C)(C)C(F)(F)F)C(C)(C)C [Example 8, methyl ((5S,8S,9S,14S)-11-(4-(1-(2,2-difluoroethyl)-1H-pyrazol-3-yl)-2,6-difluorobenzyl)-9-hydroxy-15,15-dimethyl-8-(4-((6-((1R,4R)-5-(oxetan-3-yl)-2,5-diazabicyclo[2.2.1]heptan-2-yl)pyridin-3-yl)ethynyl)benzyl)-3,6,13-trioxo-5-(1,1,1-trifluoro-2-methylpropan-2-yl)-2-oxa-4,7,11,12-tetraazahexadecan-14-yl)carbamate]  2.46 nM
